For experiment [1], the system named is LPS rat models of parkinsonism. As to the kind of experiment: Apomorphine test in LPS rat models of parkinsonism. It is filed as in vivo. The protocol:
Chronic dopamine deficiency of the left hemisphere was modeled by unilateral destruction of dopaminergic neurons in the Substantia nigra pars compacta portion of the brain. It was induced by stereotactic microinjections of 10 μg endotoxin (lipopolysaccharide) (Lipopolysaccharides from Escherichia coli O111:B4, cat. L2630 Sigma) dissolved in 2 μl sterile 0.9% NaCl (Infuzia CJSC, Ukraine). The solution was prepared on the day of a surgical procedure. A flask containing the resulting solution was sealed with a drop of silicone oil (STEP-E[…], Ukraine) and placed in a refrigerator.
An animal, anesthetized using a mixture of ketamine (75 mg/kg, diluted in sterile water for injection, Sigma, USA) and 2% xylazine ([…], Alfasan International B.V., Netherlands) administered intraperitoneally in a total volume of 1 ml, was placed in a stereotaxic apparatus (SEZH-4) modified for rats. The animal was then scalped and a trephine opening was made with an injection needle, directly into the substantia nigra (AP=−5.3; ML=±2.0; DV=−7.2). Dissolved LPS was collected into a home-made microinjector and its tip was dropped into the trephine opening.
Endotoxin at a dose of 10 μg in a volume of 2 μl was injected in the brain tissue at a rate of […] (every 15 seconds). After endotoxin was administered, the tip of the microinjector remained in the brain tissue for 5 minutes. The microinjector was then removed and stitches were put on the scalp soft tissues of the animal. Control animals were administered 2 μl sterile 0.9% NaCl, instead of LPS (sham operated animals).
The percentage of destroyed dopaminergic neurons was calculated using an apomorphine test. The intensity of rotational motions of an animal to the contralateral side of the hemisphere into which endotoxin was injected was assessed. A similar motor activity was induced by systemic intraperitoneal administration of apomorphine, a dopamine receptor agonist (0.5 mg/kg, Sigma, USA). The intensity of such rotational motions for 30 minutes indicated the degree of degradation of the nigrostriatal dopamine system (SA Talanov et al., Neurophysiology 38 (2), 128-133). The number of animals in which the number of rotations increased, decreased or remained unchanged within 30 minutes between apomorphine test I and II was quantified.
On the 1st day of the experiment, rats were either operated to model hemi-parkinsonism or sham operated. From the 9th to the 18th day of the experiment, the animals were injected either deuterium-depleted water or the test substance, according to their allocation into groups, for 10 days. […]

Experiment [2] relates to LPS rat models of Parkinson's disease. As to the kind of experiment: Elevated plus maze. It is filed as in vivo. From the text: Method. The elevated plus maze is a widely used behavioral assay for rodents that makes it possible to assess sedative or anxiogenic effects of agents and to define mechanisms underlying anxiety-related behavior, as well as to evaluate the motor activity of rats and levels of their exploratory activity that may correlate with the data collected in the open field test. Campos A C, et al., Braz J Psychiatry. 2013; 35 Suppl 2:S101-11. doi: 10.1590/1516-4446-2013-1139; Braun A A, et al., Neurobiol Learn Mem. 2012; 97(4):402-8. doi: 10.1016/j.nlm.2012.03.004). Behavior was assessed according to the following main parameters: the total distance travelled, the number of entries into each arm, the time spent in each arm, the total number of entries and percent of entries. […] Throughout the experiment, animals had free access to food and water. Before starting measurements, animals were given time to adapt to new an environment to reduce stress.
The entire apparatus was elevated 50 cm above the floor. The central part of the junction was a 10 cm square center region where an animal was started facing an open arm. The apparatus was illuminated by two LED bulbs, 60 watts each, hanging at a height of 2 m. An IP camera was used to record the location of rats and scoring was completed later using the MATLAB-based software. The statistical analysis was performed using GraphPad Prism. Significance was set at <0.005. The data collected from the open field were analyzed using One-way ANOVA (Tukey test or Dunnett test) and Unpaired t-test or Mann-Whitney.
Data analysis and interpretation. The test is based on the natural aversion of rats for open areas and their preference for closed areas of the apparatus. The levels of anxiety in animals are assessed as the total time spent in the open and closed arms. Animals that spend more time in the open arms have lower levels of anxiety compared to animals that prefer closed arms. In addition, like in an open field test, a novel environment in which an animal finds itself evokes conflict between fear and a desire to explore this environment. Therefore, the data collected from these two tests may correlate in the distance travelled and the time spent in the outer and inner perimeter. It is considered normal if during a 5-minute test, animals spend most of their time in the closed arms but also make a few entries to the open arms to explore. Accordingly, an increase in open arm entries is interpreted as a decreased anxiety in the animal. FIG. 51A and FIG. 51B show an example of analysis of a rat trajectory in the experimental arena.
On the 1st day of the experiment, rats were either operated to model hemi-parkinsonism or sham operated. From the 9th to the 18th day of the experiment, the animals were injected either deuterium-depleted water or the test substance, according to their allocation into groups, for 10 days. On the 8th day of the experiment (before initiation of treatment—apomorphine test I) and on the 21st day of the experiment (after the end of administering the test substance —apomorphine test II) the animals underwent an apomorphine test to analyze the development of hemi-parkinsonism which correlates with the number of destroyed dopaminergic neurons. In addition, a follow-up analysis of fecal water content was carried out, i.e., before the start of treatment on the 8th day after the operation, as well as on the 21st (after the end of treatment) and the 28th day (before autopsy). On the 24th day of the experiment, behavioral tests were carried out in all groups. All animals were weighed before autopsy.

Consider one substance from US11779597B2, “Method of treating Parkinson's and other neurodegenerative diseases” (Vector Vitale IP LLC, priority 2019, dated 2023).

Entries after “also recorded” stand apart in the source; their conditions may differ.

“^64Zn-enriched zinc aspartate [^64Zne-asp]”: the “rats with increased number of rotations between the 1st and 2nd apomorphine tests” value in experiment [1] (1.5 mg/kg i.v. for 10 days, 2 out of 14 animals) amounted to 14.3%. Moreover, the “rats with a fewer number of rotations between the 1st and 2nd apomorphine tests” value in experiment [1] (1.5 mg/kg i.v. for 10 days, 12 out of 14 animals) is listed as 85.7%. The “difference in the mean number of rotations between the 1st and 2nd apomorphine tests” value in experiment [1] (LPS rats, 1.5 mg/kg i.v. for 10 days, listed as 64Zn-asp, 1.5 mg/kg) is given as “no significant difference; also recorded: did not cause a significant change”. For the same substance, the “mean number of rotations, 1st apomorphine test” value in experiment [1] (LPS rats, day 8, before start of treatment) is reported as 91.2±107.7 rot./30 min. In addition, in experiment [2] (LPS + ^64Zn-asp, Gr. V), the “Number of entries into closed arms” value is on record as 6.1 ± 8.279, the “Number of entries into open arms” value amounted to 6.1 ± 8.279, the “Time spent in closed arms” value worked out at 243.3 ± 54.2 s and the “Time spent in open arms” value worked out at 17.55 ± 24.48 s. In experiment [2] (LPS + ^64Zn-asp, Gr. V), the “Total distance travelled, cm” value amounted to 396.8 ± 107.7 cm and the “Total number of entries” value was 13 ± 16.66. The “behavioral parameters in the elevated plus maze (in words)” value in experiment [2] (group V (LPS+^64Zn-asp) versus group IV (LPS)) is recorded as “had not produced any effects”. Further, in experiment [2] (group V versus group IV (LPS)), the “increase of number of entries” value amounted to 1.3 times and the “increase of total distance travelled” value was 1.2 times.
